Legend:
[1] = biological target: RAC-beta serine/threonine-protein kinase (Homo sapiens) (UniProt P31751)
[2] = biological target: Calcium/calmodulin-dependent protein kinase kinase 2 (Homo sapiens) (UniProt Q96RR4)
[3] = biological target: Casein kinase I isoform gamma-1 (Homo sapiens) (UniProt Q9HCP0)
[4] = biological target: Ephrin type-A receptor 2 (Homo sapiens) (UniProt P29317)
[5] = biological target: Receptor-type tyrosine-protein kinase FLT3 (Homo sapiens) (UniProt P36888)
[6] = biological target: Glycogen synthase kinase-3 beta (Homo sapiens) (UniProt P49841)
[7] = biological target: Serine/threonine-protein kinase ICK (Homo sapiens) (UniProt Q9UPZ9)
[8] = biological target: Mitogen-activated protein kinase kinase kinase 13 (Homo sapiens) (UniProt O43283)
Chain of Mitogen-activated protein kinase kinase kinase 13 (Homo sapiens) (O43283 whole entry): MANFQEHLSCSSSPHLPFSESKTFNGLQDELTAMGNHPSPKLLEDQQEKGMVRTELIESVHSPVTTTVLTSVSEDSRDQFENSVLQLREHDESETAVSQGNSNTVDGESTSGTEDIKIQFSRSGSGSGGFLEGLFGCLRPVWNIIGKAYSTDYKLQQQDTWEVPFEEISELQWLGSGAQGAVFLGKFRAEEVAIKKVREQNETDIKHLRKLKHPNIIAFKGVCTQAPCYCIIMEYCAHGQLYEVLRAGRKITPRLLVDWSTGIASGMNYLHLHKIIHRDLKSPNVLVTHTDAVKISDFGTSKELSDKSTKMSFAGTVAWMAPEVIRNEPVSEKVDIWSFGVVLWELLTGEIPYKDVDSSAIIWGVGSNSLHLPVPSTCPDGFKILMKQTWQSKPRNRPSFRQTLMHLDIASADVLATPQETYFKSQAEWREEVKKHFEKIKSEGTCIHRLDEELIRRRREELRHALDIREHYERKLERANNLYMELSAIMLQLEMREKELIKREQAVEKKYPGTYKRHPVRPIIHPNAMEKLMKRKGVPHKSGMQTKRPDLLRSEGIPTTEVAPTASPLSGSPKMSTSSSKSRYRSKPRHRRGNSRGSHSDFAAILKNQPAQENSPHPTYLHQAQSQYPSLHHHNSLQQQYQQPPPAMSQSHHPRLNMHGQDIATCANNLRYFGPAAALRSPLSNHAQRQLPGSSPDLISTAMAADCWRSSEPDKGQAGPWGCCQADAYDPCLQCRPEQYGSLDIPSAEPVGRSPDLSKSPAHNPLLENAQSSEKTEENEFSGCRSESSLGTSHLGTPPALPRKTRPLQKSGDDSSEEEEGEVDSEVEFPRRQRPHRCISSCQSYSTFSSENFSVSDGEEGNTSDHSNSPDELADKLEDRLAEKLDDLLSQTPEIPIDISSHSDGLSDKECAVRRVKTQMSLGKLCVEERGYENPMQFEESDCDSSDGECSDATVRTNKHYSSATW

[9] = biological target: Mitogen-activated protein kinase kinase kinase kinase 4 (Homo sapiens) (UniProt O95819)
Chain of Mitogen-activated protein kinase kinase kinase kinase 4 (Homo sapiens) (O95819 2-1239 limits assumed): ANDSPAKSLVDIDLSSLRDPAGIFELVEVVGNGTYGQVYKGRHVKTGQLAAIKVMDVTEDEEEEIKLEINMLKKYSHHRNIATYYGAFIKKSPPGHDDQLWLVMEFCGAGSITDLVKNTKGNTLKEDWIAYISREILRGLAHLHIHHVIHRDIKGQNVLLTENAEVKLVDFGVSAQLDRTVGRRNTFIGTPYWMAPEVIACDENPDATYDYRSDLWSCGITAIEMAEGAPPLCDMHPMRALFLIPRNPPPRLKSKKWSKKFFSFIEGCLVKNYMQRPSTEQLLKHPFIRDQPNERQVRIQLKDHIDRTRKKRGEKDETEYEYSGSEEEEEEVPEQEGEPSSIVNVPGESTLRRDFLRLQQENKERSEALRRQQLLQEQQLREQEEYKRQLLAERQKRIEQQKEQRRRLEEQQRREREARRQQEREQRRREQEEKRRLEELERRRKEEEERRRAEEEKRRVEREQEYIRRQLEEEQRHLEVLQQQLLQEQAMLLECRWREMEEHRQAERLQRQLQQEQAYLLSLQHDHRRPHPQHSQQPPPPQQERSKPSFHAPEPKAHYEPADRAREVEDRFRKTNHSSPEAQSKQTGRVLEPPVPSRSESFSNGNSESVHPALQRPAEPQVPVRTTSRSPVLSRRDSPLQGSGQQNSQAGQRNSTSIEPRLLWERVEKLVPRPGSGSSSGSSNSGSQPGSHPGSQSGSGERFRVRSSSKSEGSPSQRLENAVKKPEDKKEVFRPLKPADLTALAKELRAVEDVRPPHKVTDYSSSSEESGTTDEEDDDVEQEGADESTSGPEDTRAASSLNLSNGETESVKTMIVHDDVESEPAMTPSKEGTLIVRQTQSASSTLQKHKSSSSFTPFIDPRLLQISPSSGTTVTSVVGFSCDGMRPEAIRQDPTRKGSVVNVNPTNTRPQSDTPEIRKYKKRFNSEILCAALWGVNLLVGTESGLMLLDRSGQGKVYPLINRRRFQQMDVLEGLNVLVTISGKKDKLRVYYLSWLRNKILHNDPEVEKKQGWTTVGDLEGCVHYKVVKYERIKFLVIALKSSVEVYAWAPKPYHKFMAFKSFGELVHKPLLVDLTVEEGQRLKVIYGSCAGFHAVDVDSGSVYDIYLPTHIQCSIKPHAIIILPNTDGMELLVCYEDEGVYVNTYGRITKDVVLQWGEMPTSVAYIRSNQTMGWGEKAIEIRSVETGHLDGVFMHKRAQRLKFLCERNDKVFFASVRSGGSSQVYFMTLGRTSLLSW

[10] = test system: Hepatocyte growth factor receptor (Homo sapiens), P08581 [M1250T]
[11] = biological target: Serine/threonine-protein kinase PAK 5 (Homo sapiens) (UniProt Q9P286)
[12] = biological target: Cyclin-dependent kinase 18 (Homo sapiens) (UniProt Q07002)
[13] = biological target: Phosphatidylinositol 3-kinase C2 domain-containing subunit gamma (Homo sapiens) (UniProt O75747)
[14] = test system: Phosphatidylinositol 4,5-bisphosphate 3-kinase catalytic subunit alpha isoform (Homo sapiens), P42336 [M1043I]
[15] = biological target: Phosphatidylinositol 4,5-bisphosphate 3-kinase catalytic subunit delta isoform (Homo sapiens) (UniProt O00329)
[16] = biological target: 1-phosphatidylinositol 3-phosphate 5-kinase (Homo sapiens) (UniProt Q9Y2I7)
[17] = biological target: T1, cGMP-dependent protein kinase 1 (Homo sapiens) (UniProt Q13976)
T1 sequence (whole entry): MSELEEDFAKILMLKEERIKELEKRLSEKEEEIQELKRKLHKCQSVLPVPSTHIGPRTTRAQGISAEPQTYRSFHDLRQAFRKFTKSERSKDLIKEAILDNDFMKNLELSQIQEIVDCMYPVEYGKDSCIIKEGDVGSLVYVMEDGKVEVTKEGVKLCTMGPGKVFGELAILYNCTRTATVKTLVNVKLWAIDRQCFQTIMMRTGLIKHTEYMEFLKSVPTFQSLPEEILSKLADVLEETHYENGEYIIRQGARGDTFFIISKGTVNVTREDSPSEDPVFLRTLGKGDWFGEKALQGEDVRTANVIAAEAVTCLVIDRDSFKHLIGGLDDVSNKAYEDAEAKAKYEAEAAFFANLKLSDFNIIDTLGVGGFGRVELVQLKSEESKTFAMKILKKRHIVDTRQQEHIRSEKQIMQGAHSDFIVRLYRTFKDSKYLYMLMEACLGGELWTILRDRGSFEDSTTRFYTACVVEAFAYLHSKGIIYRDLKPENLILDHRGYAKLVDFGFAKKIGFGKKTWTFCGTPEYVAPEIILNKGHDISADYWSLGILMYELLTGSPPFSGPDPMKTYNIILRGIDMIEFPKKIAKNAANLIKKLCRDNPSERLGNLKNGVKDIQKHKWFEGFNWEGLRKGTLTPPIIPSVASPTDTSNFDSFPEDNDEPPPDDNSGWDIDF

[18] = biological target: Serine/threonine-protein kinase SIK3 (Homo sapiens) (UniProt Q9Y2K2)
[19] = biological target: Serine/threonine-protein kinase RIO3 (Homo sapiens) (UniProt O14730)
[20] = biological target: Ribosomal protein S6 kinase alpha-2 (Homo sapiens) (UniProt Q15349)
[21] = biological target: Ribosomal protein S6 kinase beta-1 (Homo sapiens) (UniProt P23443)
Chain of Ribosomal protein S6 kinase beta-1 (Homo sapiens) (P23443 whole entry, looked up): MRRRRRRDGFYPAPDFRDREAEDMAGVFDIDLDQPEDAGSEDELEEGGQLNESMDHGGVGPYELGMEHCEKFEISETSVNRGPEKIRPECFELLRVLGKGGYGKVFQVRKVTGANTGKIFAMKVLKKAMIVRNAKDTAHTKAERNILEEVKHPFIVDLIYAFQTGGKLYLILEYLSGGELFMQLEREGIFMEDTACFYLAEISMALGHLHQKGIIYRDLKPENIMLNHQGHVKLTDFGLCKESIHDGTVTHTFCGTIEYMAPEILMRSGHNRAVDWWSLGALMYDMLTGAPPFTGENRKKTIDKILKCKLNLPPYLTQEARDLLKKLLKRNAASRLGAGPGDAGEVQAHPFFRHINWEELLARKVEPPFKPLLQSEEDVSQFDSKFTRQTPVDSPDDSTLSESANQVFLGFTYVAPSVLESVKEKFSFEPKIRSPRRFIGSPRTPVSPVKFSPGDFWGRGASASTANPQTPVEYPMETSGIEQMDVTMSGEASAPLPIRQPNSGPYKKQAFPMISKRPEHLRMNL

[22] = biological target: High affinity nerve growth factor receptor (Homo sapiens) (UniProt P04629)
Chain of High affinity nerve growth factor receptor (Homo sapiens) (P04629 33-796 limits assumed): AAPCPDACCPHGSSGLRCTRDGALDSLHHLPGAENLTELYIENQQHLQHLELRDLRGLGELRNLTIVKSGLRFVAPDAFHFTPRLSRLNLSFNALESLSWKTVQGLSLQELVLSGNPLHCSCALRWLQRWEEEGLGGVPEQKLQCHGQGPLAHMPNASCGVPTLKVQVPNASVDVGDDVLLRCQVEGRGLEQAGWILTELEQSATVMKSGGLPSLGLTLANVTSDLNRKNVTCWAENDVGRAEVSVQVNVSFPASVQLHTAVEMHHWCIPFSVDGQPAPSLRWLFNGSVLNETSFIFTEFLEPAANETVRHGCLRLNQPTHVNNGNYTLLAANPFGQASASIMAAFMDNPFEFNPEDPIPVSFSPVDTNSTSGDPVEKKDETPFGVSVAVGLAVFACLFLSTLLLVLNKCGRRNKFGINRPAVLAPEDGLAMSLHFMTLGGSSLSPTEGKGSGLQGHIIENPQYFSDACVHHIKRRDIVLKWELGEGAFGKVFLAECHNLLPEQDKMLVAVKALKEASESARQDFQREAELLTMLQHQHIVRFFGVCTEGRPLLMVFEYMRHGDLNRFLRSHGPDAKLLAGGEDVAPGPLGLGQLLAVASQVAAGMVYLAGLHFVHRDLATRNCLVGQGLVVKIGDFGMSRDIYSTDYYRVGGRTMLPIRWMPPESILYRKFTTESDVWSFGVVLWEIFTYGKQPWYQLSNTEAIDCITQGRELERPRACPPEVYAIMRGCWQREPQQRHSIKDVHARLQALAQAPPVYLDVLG

[23] = biological target: T2, Alpha-2C adrenergic receptor (Homo sapiens) (UniProt P18825); conditions: Compound concentration 10.0 uM
T2 sequence (whole entry): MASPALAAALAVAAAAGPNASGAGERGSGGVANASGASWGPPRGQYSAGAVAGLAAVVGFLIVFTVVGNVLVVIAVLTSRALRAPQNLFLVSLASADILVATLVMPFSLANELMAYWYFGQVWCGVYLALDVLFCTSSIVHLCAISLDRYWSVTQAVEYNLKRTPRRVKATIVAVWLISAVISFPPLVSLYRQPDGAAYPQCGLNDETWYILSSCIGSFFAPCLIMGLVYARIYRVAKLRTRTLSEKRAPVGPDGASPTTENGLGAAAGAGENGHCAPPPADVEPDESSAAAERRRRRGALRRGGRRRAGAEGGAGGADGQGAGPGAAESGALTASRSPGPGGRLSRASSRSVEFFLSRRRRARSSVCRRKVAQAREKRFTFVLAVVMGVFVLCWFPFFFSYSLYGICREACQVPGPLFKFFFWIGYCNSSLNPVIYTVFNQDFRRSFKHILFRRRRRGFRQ

[24] = biological target: GABA-A receptor; anion channel (Rattus norvegicus) (UniProt O09028+P15431+P18506+P18508+P19969+P20236+P23574+P23576+P28471+P28473+P30191+P62813+P63079+P63138+Q91ZM7+Q9ES14); conditions: Compound concentration 10.0 uM
[25] = Compound concentration 1000.0 nM
[26] = Compound concentration 100.0 nM

Chain of RAC-beta serine/threonine-protein kinase (Homo sapiens) (P31751 whole entry): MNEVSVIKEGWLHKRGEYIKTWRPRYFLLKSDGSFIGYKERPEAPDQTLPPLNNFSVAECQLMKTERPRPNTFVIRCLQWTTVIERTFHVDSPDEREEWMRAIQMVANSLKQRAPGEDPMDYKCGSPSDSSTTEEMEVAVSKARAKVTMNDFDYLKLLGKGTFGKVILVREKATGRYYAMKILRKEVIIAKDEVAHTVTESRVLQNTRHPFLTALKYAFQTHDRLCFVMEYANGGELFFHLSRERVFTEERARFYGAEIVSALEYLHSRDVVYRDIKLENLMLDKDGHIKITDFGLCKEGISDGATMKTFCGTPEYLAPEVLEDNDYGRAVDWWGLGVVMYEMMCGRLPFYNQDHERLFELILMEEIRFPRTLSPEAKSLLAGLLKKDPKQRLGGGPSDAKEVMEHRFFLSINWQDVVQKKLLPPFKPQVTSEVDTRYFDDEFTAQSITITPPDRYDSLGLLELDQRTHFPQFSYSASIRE
Chain of Receptor-type tyrosine-protein kinase FLT3 (Homo sapiens) (P36888 whole entry): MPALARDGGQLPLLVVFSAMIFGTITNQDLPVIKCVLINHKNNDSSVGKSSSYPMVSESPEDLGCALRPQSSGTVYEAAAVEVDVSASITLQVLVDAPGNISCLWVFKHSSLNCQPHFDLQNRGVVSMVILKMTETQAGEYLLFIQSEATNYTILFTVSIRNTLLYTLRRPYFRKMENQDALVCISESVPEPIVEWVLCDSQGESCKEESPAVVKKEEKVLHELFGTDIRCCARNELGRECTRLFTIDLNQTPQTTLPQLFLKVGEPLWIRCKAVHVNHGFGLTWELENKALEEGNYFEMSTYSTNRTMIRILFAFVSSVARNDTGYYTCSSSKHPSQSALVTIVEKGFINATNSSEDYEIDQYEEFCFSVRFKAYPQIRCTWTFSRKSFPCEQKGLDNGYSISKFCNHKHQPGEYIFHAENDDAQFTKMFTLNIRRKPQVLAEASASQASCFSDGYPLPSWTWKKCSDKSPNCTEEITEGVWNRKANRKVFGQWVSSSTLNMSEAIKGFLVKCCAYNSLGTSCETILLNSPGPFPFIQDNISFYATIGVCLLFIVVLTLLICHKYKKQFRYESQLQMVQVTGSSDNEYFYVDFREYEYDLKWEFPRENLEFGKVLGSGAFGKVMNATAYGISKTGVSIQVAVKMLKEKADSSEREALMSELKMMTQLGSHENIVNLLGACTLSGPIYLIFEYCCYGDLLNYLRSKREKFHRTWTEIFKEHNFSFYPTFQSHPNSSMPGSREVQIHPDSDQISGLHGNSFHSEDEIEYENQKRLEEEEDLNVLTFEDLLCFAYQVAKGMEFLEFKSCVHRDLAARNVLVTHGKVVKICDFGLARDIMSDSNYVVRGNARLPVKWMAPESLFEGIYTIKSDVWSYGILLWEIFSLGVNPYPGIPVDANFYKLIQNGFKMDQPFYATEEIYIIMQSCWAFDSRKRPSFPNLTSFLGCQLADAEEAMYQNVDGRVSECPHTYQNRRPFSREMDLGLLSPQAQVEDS

C[C@@H]1CN(c2cc(-c3nn(C)c4ccc(OC5(C)CC5)cc34)ncn2)C[C@H](C)O1 [MLi-2-NC]
inactive: residual activity [1, 25] 89% | residual activity [2, 25] 85% | residual activity [3, 25] 89% | residual activity [4, 25] 100% | residual activity [5, 25] 96% | residual activity [6, 25] 91% | residual activity [7, 25] 78% | residual activity [8, 25] 91% | residual activity [9, 25] 100% | residual activity [10, 25] 93% | residual activity [11, 25] 84% | residual activity [12, 25] 100% | residual activity [13, 25] 100% | residual activity [14, 25] 96% | residual activity [15, 25] 97% | residual activity [16, 25] 78% | residual activity [17, 25] 100% | residual activity [18, 25] 63% | residual activity [19, 25] 100% | residual activity [20, 25] 100% | residual activity [21, 25] 100% | residual activity [22, 25] 76% | inhibition [23] 15.1% | inhibition [24] 2.92%

C[C@@H]1CN(c2cc(-c3n[nH]c4ccc(OC5(C)CC5)cc34)ncn2)C[C@H](C)O1 [MLi-2]
active: residual activity [8, 26] 0%
inactive: residual activity [1, 26] 100% | residual activity [2, 26] 100% | residual activity [3, 26] 100% | residual activity [4, 26] 72% | residual activity [5, 26] 99% | residual activity [6, 26] 90% | residual activity [7, 26] 62% | residual activity [9, 26] 98% | residual activity [10, 26] 79% | residual activity [11, 26] 86% | residual activity [12, 26] 100% | residual activity [13, 26] 69% | residual activity [14, 26] 82% | residual activity [15, 26] 68% | residual activity [16, 26] 90% | residual activity [17, 26] 100% | residual activity [18, 26] 74% | residual activity [19, 26] 100% | residual activity [20, 26] 100% | residual activity [21, 26] 73% | residual activity [22, 26] 73% | inhibition [23] 7.85% | inhibition [24] 7.14%
